Measured values published in US20060100264A1, “3,3'-Diindolylmethane immune activating compositions” (priority 2004, published 2006).

What was measured:
[1] = tested on: DMBA-induced mammary tumors; details: single oral dose prior to carcinogen, rats; cited from earlier work
IFNGR1 protein = details: previous studies (ref 27), cited from earlier work
MCF-7 cells [2] = experiment: Flow cytometry of cell cycling (G1 phase); format: cell-based, human; details: up to 3 days; control approximately 50% in G1
Text: Flow cytometry was used to determine the effects of DIM and IFNγ on cell cycling. […] In control groups approximately 50% of the cells were in G1. Treatment with IFNγ alone caused a small progressive increase in G1 blocked cells of up to 10% above the DMSO control, after 3 days.

MHC-I complex = experiment: Flow cytometry of cell surface MHC-I expression (FITC-conjugated HLA-ABC antibody); format: cell-based, human
Experimental: Induced expression of the MHC-I complex is a well-established and important down-stream target of IFNγ-mediated signal transduction. To examine further the possible synergistic effects of DIM on a significant metabolic product of IFNγ signaling, we tested the effects of co-treatment with DIM on IFNγ induced expression of MHC-I complex in MCF-7 cells.
Flow cytometry analysis of cell surface MHC-I expression was conducted using FITC-conjugated HLA-ABC antibody. In an initial control experiment, cultured MCF-7 cells were pre-treated with 30 μM DIM for 48 hours and then with or without 10 ng/mL IFNγ for another 16 hours. […] In a subsequent experiment in which cells were treated with a range of IFNγ concentrations and analyzed with the anti-MHC-I antibody, a strong signal indicative of IFNγ-induced MHC-I expression was detectable at 0.1 ng/mL and appeared to plateau at 10 ng/mL. In cells treated with vehicle control only, MHC-I expression was not detected in greater than 99% of cells.
Exposure to DIM of cells treated with 10 ng/mL of IFNγ, about 95% of which expressed MHC-I, produced a strong time dependent increase in MFV from 76.04 to 131.41. […] As expected, addition of an IFNγ blocking antibody into the medium before the treatments abrogated the inducing effects of co-treatments of IFNγ and DIM on MHC-I expression, confirming the requirement of the cytokine for the observed effects.

[3] = tested on: OAS-Luc reporter (promoter and 5′-flanking region of p69-OAS); experiment: OAS-Luc luciferase reporter in transiently transfected MCF-7 cells; format: cell-based, human; details: 24 h treatment
Experimental: (§1) In a further experiment to examine whether the inducing effects of DIM are at the transcriptional level, the effect of DIM on activities of two luciferase reporter constructs, OAS-Luc (12) and 4GAS-Luc (13) was examined. OAS-Luc contains the promoter and 5′-flanking region (−972) of p69-OAS and GAS-Luc contains four repeats of the consensus GAS element. MCF-7 cells transiently transfected with these reporter constructs were treated with IFNγ, DIM, or a combination of both for 24 h. […] IFNγ induced transcriptional activity of this reporter in a concentration dependent manner to a maximum of about 1.8 fold, which is less than the response of the endogenous gene of about 5.0 fold. In marked contrast to the maximum effects of combined treatments of the inducers on endogenous gene expression (nearly 12-fold increase compared to vehicle treated cells), the reporter gene construct responded with less than a 3-fold increase over the controls.

[4] = tested on: HLA-A, HLA-B, HLA-C, β-microtubulin, TAP1 and TAP2; experiment: RT-PCR of MHC-I components and transporters in MCF-7 cells; format: cell-based, human
Text: RT-PCR was used to examine the expression of the four major components of human MHC-I, including HLA-A, HLA-B, HLA-C, and β-microtubulin, as well as two important associated transporters, TAP1 and TAP2. […] As expected, the expressions of these genes were increased 2-8 fold by treatment with IFNγ.

[5] = tested on: 4GAS-Luc reporter (four repeats of the consensus GAS element); experiment: 4GAS-Luc luciferase reporter in transiently transfected MCF-7 cells; format: cell-based, human; details: DIM 50 μM, IFNγ concentration dependent, maximum
Experimental: as §1
Thus, treatment with DIM (50 μM) by itself again produced a 2 to 3-fold increase in activity of this reporter. IFNγ treatments, however, produced a robust concentration dependent increase in reporter activity to approximately 40-fold induction compared to vehicle treated controls. […]

GAS element = experiment: Electrophoretic gel mobility shift assay, STAT1 binding to GAS element; format: cell-based, human; details: DIM pretreatment for various times, IFNγ 30 min
Experimental: An electrophoretic gel mobility shift assay was used to verify that the phosphorylated STAT1 was effectively activated to a dimer that could bind to the GAS element. The ^32P-labeled DNA probe containing a GAS sequence was incubated with nuclear extracts from cells pretreated with DIM for various times as indicated, and with IFNγ for 30 min. […] When samples were incubated with an antibody specific to STAT1, the band was super-shifted, confirming the identity of the protein binding to the labeled GAS probe.

MCF-7 cells [6] = experiment: Cell proliferation over a 4-day treatment period; format: cell-based, human
Experimental: Functional consequences of the synergistic effects of DIM and IFNγ on gene expression were examined at the level of proliferation rates. Cell proliferation was measured over a 4-day treatment period with treatments with DIM, IFNγ, or both substances, and compared to a DMSO control. With heat-treated serum, IFNγ alone reduced cell proliferation by as much as 70% compared to controls. DIM treatments reduced proliferation by as much as 60%. […] These effects were accompanied by morphological changes characteristic of apoptosis.

MHC-II = MHC-II expression in MCF-7 cells; format: cell-based, human
Text: In an analogous further experiment, we observed no effect of DIM or IFNγ on MHC-II expression in the MCF-7 cells.

For `OCc1c[nH]c2ccccc12` [I3C, indole-3-carbinol], the “Reduction of incidence and multiplicity of DMBA-induced mammary tumors” value [1] is listed as 70-80%, the “IFNGR1 receptor expression increase” value (IFNGR1 protein; 24 hours of treatment with I3C) is listed as “about 3 fold” and the “Maximum level of IFNGR1 protein induction” value (IFNGR1 protein; I3C) is listed as “about 7 fold”. For the same compound, the “Time at which maximum IFNGR1 protein induction was reached” value (IFNGR1 protein; I3C) was “about 48 hours”.
With “IFNγ: Type II IFN, interferon-γ or the immune interferon, a cytokine” the “Increase in G1 blocked cells above the DMSO control” value (MCF-7 cells [2]) was “up to 10%”, the “Percentage of MHC-I positive cells” value (MHC-I complex; 0.1 ng/mL IFNγ, without or with 30 μM DIM pretreatment for 48 h) was 8.11% and the “MHC-I expression/cell (MFV)” value (MHC-I complex; 10 ng/mL IFNγ, without or with exposure to DIM) was 76.04. The “Cells which expressed MHC-I” value (MHC-I complex; 10 ng/mL of IFNγ) was “about 95%”, the “IFNγ concentration at which MHC-I signal appeared to plateau” value (MHC-I complex; MCF-7 cells) was 10 ng/mL and the “IFNγ concentration at which induced MHC-I expression was detectable” value (MHC-I complex; MCF-7 cells) was 0.1 ng/mL. For the same compound, the “Maximum induction of OAS-Luc reporter” value [3] was “about 1.8 fold”, the “Expression levels of the six genes (MHC-I components, TAP1, TAP2) above vehicle/background” value [4] was 2-8 fold and the “Induction of 4GAS-Luc reporter activity compared to vehicle treated controls” value [5] was “approximately 40 fold”. The “Band-shift of 32P-labeled GAS probe with nuclear extracts” value (GAS element) was “produced a band-shift”, the “Reduction of cell proliferation compared to controls” value (MCF-7 cells [6]; 4-day treatment, heat-treated serum) was ≤ 70% and the “Effect on proliferation of cells grown in unheated serum” value (MCF-7 cells [6]; unheated serum) was “no significant effect”. The “Effect on MHC-II expression” value (MHC-II) was “no effect”.
